Where two headings read alike, the source gives them in different places.
Legend:
[1] = system: Influenza A/Sydney/05/97 (H3N2); test: microbe, parasite or virus in culture; assay type: cell-based; details: H3N2, MDCK, read-out: IC90, VYR Assay
[2] = system: A/Brisbane/10/2007 (H3N2); test: microbe, parasite or virus in culture; assay type: cell-based; details: Influenza A virus, H3N2, MDCK, read-out: IC90, VYR Assay
[3] = system: A/Hong Kong/213/2003H (A/Hong Kong/213/2003 × Ann Arbor/6/60 hybrid); test: microbe, parasite or virus in culture; assay type: cell-based; details: Influenza A virus, MDCK, read-out: IC90, VYR Assay
[4] = system: A/Vietnam/1203/04H (A/Vietnam/1203/04 × Ann Arbor/6/60 hybrid); test: microbe, parasite or virus in culture; assay type: cell-based; details: Influenza A virus, MDCK, read-out: IC90, VYR Assay
A/Duck/MN/1525/81 (H5N1) [5] = test: microbe, parasite or virus in culture; assay type: cell-based; details: Influenza A virus, H5N1, MDCK, read-out: IC90, VYR Assay
B/Malaysia/2506/2004 [6] = test: microbe, parasite or virus in culture; assay type: cell-based; details: Influenza B virus, MDCK, read-out: IC90, VYR Assay
B/Florida/4/2006 [7] = test: microbe, parasite or virus in culture; assay type: cell-based; details: Influenza B virus, MDCK, read-out: IC90, VYR Assay
influenza viruses = test: microbe, parasite or virus in culture; assay type: cell-based, influenza A and B viruses; details: Influenza A virus
[8] = system: influenza A/CA/07/2009 (H1N1)
[9] = system: influenza A/CA/07/2009 (H1N1); remark: listed apart in the source
[10] = system: Influenza A/Sydney/05/97 (H3N2)
[11] = system: Influenza A/Sydney/05/97 (H3N2); remark: listed apart in the source
[12] = system: A/Brisbane/10/2007 (H3N2)
[13] = system: A/Hong Kong/213/2003H (A/Hong Kong/213/2003 × Ann Arbor/6/60 hybrid)
[14] = system: A/Vietnam/1203/04H (A/Vietnam/1203/04 × Ann Arbor/6/60 hybrid)
[15] = system: A/Vietnam/1203/04H (A/Vietnam/1203/04 × Ann Arbor/6/60 hybrid); remark: listed apart in the source
A/Gull/PA/4175/83 (H5N1) [16] = system: A/Gull/PA/4175/83 (H5N1)
A/Duck/MN/1525/81 (H5N1) [17] = system: A/Duck/MN/1525/81 (H5N1)
A/Duck/MN/1525/81 (H5N1) [18] = system: A/Duck/MN/1525/81 (H5N1); remark: listed apart in the source
B/Malaysia/2506/2004 [19] = system: B/Malaysia/2506/2004
B/Florida/4/2006 [20] = system: B/Florida/4/2006
B/Florida/4/2006 [21] = system: B/Florida/4/2006; remark: listed apart in the source
in vitro = details: dog
[22] = system: influenza A/CA/07/2009 (H1N1); test: microbe, parasite or virus in culture; details: H1N1, MDCK, read-out: IC50, Visual Assay
[23] = system: influenza A/CA/07/2009 (H1N1); test: microbe, parasite or virus in culture; details: H1N1, MDCK, read-out: IC50, Neutral Red Uptake Assay
[24] = system: Influenza A/Sydney/05/97 (H3N2); test: microbe, parasite or virus in culture; details: H3N2, MDCK, read-out: IC50, Visual Assay
[25] = system: Influenza A/Sydney/05/97 (H3N2); test: microbe, parasite or virus in culture; details: H3N2, MDCK, read-out: IC50, Neutral Red Uptake Assay
[26] = system: A/Hong Kong/213/2003H (A/Hong Kong/213/2003 × Ann Arbor/6/60 hybrid); test: microbe, parasite or virus in culture; details: Influenza A virus, H1N1|H5N1, MDCK, read-out: IC50, Visual Assay
[27] = system: A/Hong Kong/213/2003H (A/Hong Kong/213/2003 × Ann Arbor/6/60 hybrid); test: microbe, parasite or virus in culture; details: Influenza A virus, H1N1|H5N1, MDCK, read-out: IC50, Neutral Red Uptake Assay
[28] = system: A/Vietnam/1203/04H (A/Vietnam/1203/04 × Ann Arbor/6/60 hybrid); test: microbe, parasite or virus in culture; details: Influenza A virus, H1N1|H5N1, MDCK, read-out: IC50, Neutral Red Uptake Assay
A/Gull/PA/4175/83 (H5N1) [29] = test: microbe, parasite or virus in culture; details: Influenza A virus, H5N1, MDCK, read-out: IC50, Visual Assay
A/Gull/PA/4175/83 (H5N1) [30] = test: microbe, parasite or virus in culture; details: Influenza A virus, H5N1, MDCK, read-out: IC50, Neutral Red Uptake Assay
B/Malaysia/2506/2004 [31] = test: microbe, parasite or virus in culture; details: Influenza B virus, MDCK, read-out: IC50, Visual Assay
B/Malaysia/2506/2004 [32] = test: microbe, parasite or virus in culture; details: Influenza B virus, MDCK, read-out: IC50, Neutral Red Uptake Assay
B/Florida/4/2006 [33] = test: microbe, parasite or virus in culture; details: Influenza B virus, MDCK, read-out: IC50, Neutral Red Uptake Assay
[34] = MDCK, read-out: IC90 values, range over viruses of Table 3

SMILES: Nc1ccn([C@@H]2O[C@H](CO)[C@@H](O)[C@H]2F)c(=O)n1 [2’-deoxy-2’-fluorocytidine, 2'-deoxy-2'-fluorocytidine]
- IC90 [1]: 6.7 µM
- IC90 [2]: 6.8 µM
- IC90 [3]: 5100 nM
- IC90 [4]: 2900 nM
- IC90 (A/Duck/MN/1525/81 (H5N1) [5]): 5.9 µM
- IC90 (B/Malaysia/2506/2004 [6]): 7.3 µM
- IC90 (B/Florida/4/2006 [7]): 2100 nM
- IC90 (influenza viruses; H1N1|H3N2, MDCK, read-out: IC90 values, range for the H3N2 and H1N1 viruses tested): 4.6 to 6.8 µM
- IC90 (influenza viruses; H1N1|H5N1, MDCK, read-out: IC90 values, range for the hybrid H1N1 viruses expressing the H5N1 HA and NA proteins): 2.9 to 5.1 µM
- IC90 (influenza viruses; [34]): 1.2 to 7.3 µM
- SI (CC50/IC50), Visual Assay [8]: >31
- SI (CC50/IC50), Neutral Red Uptake Assay [9]: >24
- SI (CC50/IC50), Visual Assay [10]: >170
- SI (CC50/IC50), Neutral Red Uptake Assay [11]: >40
- SI (CC50/IC50), Visual Assay [12]: >100
- SI (CC50/IC50), Neutral Red Uptake Assay [13]: >14
- SI (CC50/IC50), Visual Assay [14]: >48
- SI (CC50/IC50), Neutral Red Uptake Assay [15]: >29
- SI (CC50/IC50), Visual Assay (A/Gull/PA/4175/83 (H5N1) [16]): >110
- SI (CC50/IC50), Visual Assay (A/Duck/MN/1525/81 (H5N1) [17]): >400
- SI (CC50/IC50), Neutral Red Uptake Assay (A/Duck/MN/1525/81 (H5N1) [18]): >480
- SI (CC50/IC50), Visual Assay (B/Malaysia/2506/2004 [19]): >53
- SI (CC50/IC50), Visual Assay (B/Florida/4/2006 [20]): >100
- SI (CC50/IC50), Neutral Red Uptake Assay (B/Florida/4/2006 [21]): >71
- CC50 (in vitro; CC50, Visual Assay): > 100 µM
- IC50 [22]: 3200 nM
- IC50 [23]: 4100 nM
- IC50 [24]: 590 nM
- IC50 [25]: 2500 nM
- IC50 [26]: 1300 nM
- IC50 [27]: 7.2 µM
- IC50 [28]: 3.4 µM
- IC50 (A/Gull/PA/4175/83 (H5N1) [29]): 910 nM
- IC50 (A/Gull/PA/4175/83 (H5N1) [30]): 1100 nM
- IC50 (B/Malaysia/2506/2004 [31]): 1900 nM
- IC50 (B/Malaysia/2506/2004 [32]): 4100 nM
- IC50 (B/Florida/4/2006 [33]): 1400 nM

SMILES: Nc1ccn([C@@H]2O[C@H](CO)[C@@H](O)C2(F)F)c(=O)n1 [2’-deoxy-2’, 2’-difluorocytidine, reference compound]
- IC90 [1]: 1.6 µM
- IC90 [2]: 0.14 µM
- IC90 [3]: 40 nM
- IC90 [4]: 320 nM
- IC90 (A/Duck/MN/1525/81 (H5N1) [5]): 0.25 µM
- IC90 (B/Malaysia/2506/2004 [6]): 0.11 µM
- IC90 (B/Florida/4/2006 [7]): 1700 nM
- IC90 (influenza viruses; [34]): 0.03 to 2.1 µM
- SI (CC50/IC50), Visual Assay [8]: 11.7
- SI (CC50/IC50), Neutral Red Uptake Assay [9]: 6.9
- SI (CC50/IC50), Visual Assay [10]: 67
- SI (CC50/IC50), Neutral Red Uptake Assay [11]: 5.7
- SI (CC50/IC50), Visual Assay [12]: 43
- SI (CC50/IC50), Neutral Red Uptake Assay [13]: >1538
- SI (CC50/IC50), Visual Assay [14]: >1000
- SI (CC50/IC50), Neutral Red Uptake Assay [15]: >500
- SI (CC50/IC50), Visual Assay (A/Gull/PA/4175/83 (H5N1) [16]): >480
- SI (CC50/IC50), Visual Assay (A/Duck/MN/1525/81 (H5N1) [17]): >1700
- SI (CC50/IC50), Neutral Red Uptake Assay (A/Duck/MN/1525/81 (H5N1) [18]): >880
- SI (CC50/IC50), Visual Assay (B/Malaysia/2506/2004 [19]): >3100
- SI (CC50/IC50), Visual Assay (B/Florida/4/2006 [20]): >1400
- SI (CC50/IC50), Neutral Red Uptake Assay (B/Florida/4/2006 [21]): >440
- CC50 (in vitro; CC50 values, range, visual assay): 2.1 to 530 µM
- IC50 [22]: 180 nM
- IC50 [23]: 160 nM
- IC50 [24]: 180 nM
- IC50 [25]: 1200 nM
- IC50 [26]: < 32 nM
- IC50 [27]: 0.065 µM
- IC50 [28]: < 0.32 µM
- IC50 (A/Gull/PA/4175/83 (H5N1) [29]): 210 nM
- IC50 (A/Gull/PA/4175/83 (H5N1) [30]): 270 nM
- IC50 (B/Malaysia/2506/2004 [31]): < 32 nM
- IC50 (B/Malaysia/2506/2004 [32]): 68 nM
- IC50 (B/Florida/4/2006 [33]): < 320 nM

Source: article PMC3216401 (Antiviral research, 2011)
